Laboratory results from patent US10195297B2, “Iron garnet nanoparticles for cancer radiotherapy and chemotherapy” (priority 2014, dated 2019).

Legend:
human NSCLC A549 cells [1] = assay: MTS cytotoxicity of neutron-activated nanoparticles and free Pt drugs (Example 2); type: cell-based; details: 24 h
Description: The radioactivity of nanoparticles prior to administration to cells was determined using a 2470 WIZARD 2 automatic gamma counter. Studies involving human NSCLC A549 cells were carried out under standard conditions in a humidified, 37° C., 5% CO2 atmosphere incubator. The culture medium used for A549 cells was minimum essential medium to which had been added 10% fetal calf serum, 100 μg/mL streptomycin, 100 IU/mL penicillin and 2.0 mM L-glutamine. Cells were seeded at 5×10^4 cells/ml (100 μL/well) in 96-well plates and allowed to grow for 24 h after which time the medium was removed and replaced with medium and drug. After an exposure time of 24 h, the medium with drug was removed and replaced with 100 μL of fresh medium. To each well, 20 μL of CellTiter 96® AQueous One Solution Cell Proliferation Assay (MTS) solution was added. After 2 h incubation with the MTS solution, the absorbance was read at 490 nm using a Synergy™ H1 hybrid multi-mode microplate reader. The percent survival of cells treated by each concentration of drug was calculated using the following equation:
[formula] where Ad is the absorbance of cells treated with drug, Am is the absorbance of medium alone and Ac is the absorbance of cells without treatment. The % survival data was fit to exponential regression and IC50 values calculated.

human NSCLC A549 cells [2] = assay: MTS cytotoxicity studies of 166HoIG, 166HoIG-Pt and free Pt drugs (Example 6); type: cell-based; details: 24 h
Description: Cytotoxicity studies. The studies involving human NSCLC A549 cells were carried out under standard conditions in a humidified, 37° C., 5% CO2 atmosphere incubator. The culture medium used for A549 was Roswell Park Memorial Institute with 10% fetal calf serum (FCS), 100 μg/mL streptomycin, 100 IU/mL penicillin and 2.0 mM L-glutamine (RPMI).
Suspensions of each type of neutron-activated nanoparticle were prepared in RPMI. Two control groups, RPMI alone and RPMI with cells not exposed to ^166Ho nanoparticles, were included in each 96-well plate. At least four replicates were done for each concentration and each control group. The cells were seeded at 5×10^4 cells/mL (100 μL/well) in 96-well plates and allowed to grow for 24 h after which time the RPMI was removed and replaced with 100 μL of RPMI that contained blank ^166HoIG or ^166HoIG-Pt. After an exposure time of 24 h on a microplate shaker in the incubator, the RPMI was removed and replaced with 100 μL of fresh RPMI. […] After 1 h incubation with the MTS solution, the absorbance was read at 490 nm using a Synergy™ H1 hybrid multi-mode microplate reader. The percent survival of cells treated by each concentration of nanoparticles was calculated using the following equation:
[formula] where Ad is the absorbance of cells treated with nanoparticles, Am is the absorbance of medium alone and Ac is the absorbance of cells without treatment.

SMILES | synergy with the radioactive Ho (human NSCLC A549 cells [1]) | synergy with radiation (human NSCLC A549 cells [2])
N.N.[Cl][Pt][Cl] [cis, cisplatin] | act synergistically | 
N.N.O=C([O-])C1(C(=O)[O-])CCC1.[Pt+2] [Free carboplatin, carboplatin] |  | did not act synergistically with radiation
